Drawing on patent US9006235B2, “Inhibitors of human immunodeficiency virus replication” (priority 2012, dated 2015), this text covers EC50 for 15 compounds.

The experiment concerns recombinant NL-Rluc virus. Description: Inhibition of HIV replication (NL-Rluc virus, luciferase readout in MT-2 cells). The format is cell-based. As to conditions: Human immunodeficiency virus 1, MT2, 120 h.

Molecules are shown by their SMILES. pEC50: −log10 of the molar value. Where two headings read alike, the source gives them in different places. A value given as a limit tells only on which side of the number the result lay.

On to `Cc1nc2cc(NCc3ccccc3)nn2c(-c2cc(F)c3c(c2C)CCCO3)c1[C@H](OC(C)(C)C)C(=O)O` [Example 38, (2S)-2-(2-(benzylamino)-7-(8-fluoro-5-methylchroman-6-yl)-5-methylpyrazolo[1,5-a]pyrimidin-6-yl)-2-(tert-butoxy)acetic acid], for which the pEC50 is 6.52. The pEC50 (read-out: Activity) was 6.00 to 7.00. Turning to `Cc1nc2cc(NCCc3ccccc3)nn2c(-c2cc(F)c3c(c2C)CCCO3)c1[C@H](OC(C)(C)C)C(=O)O` [Example 39, (2S)-2-(tert-butoxy)-2-(7-(8-fluoro-5-methylchroman-6-yl)-5-methyl-2-(phenethylamino)pyrazolo[1,5-a]pyrimidin-6-yl)acetic acid], where the note is “read-out: Activity”, the pEC50 is above 7.00. Still for that read-out and setting: next, `Cc1ccc(CCNc2cc3nc(C)c([C@H](OC(C)(C)C)C(=O)O)c(-c4cc(F)c5c(c4C)CCCO5)n3n2)cc1` [Example 40, (2S)-2-(tert-butoxy)-2-(7-(8-fluoro-5-methylchroman-6-yl)-5-methyl-2-((4-methylphenethyl)amino)pyrazolo[1,5-a]pyrimidin-6-yl)acetic acid]: above 7.00. With `Cc1nc2cc(NCCCc3ccccc3)nn2c(-c2cc(F)c3c(c2C)CCCO3)c1[C@H](OC(C)(C)C)C(=O)O` [Example 41, (2S)-2-(tert-butoxy)-2-(7-(8-fluoro-5-methylchroman-6-yl)-5-methyl-2-((3-phenylpropyl)amino)pyrazolo[1,5-a]pyrimidin-6-yl)acetic acid], the pEC50 is 7.30. In addition, the pEC50 (read-out: Activity) is above 7.00. As to `Cc1nc2cc(NCCCC3CCCC3)nn2c(-c2cc(F)c3c(c2C)CCCO3)c1[C@H](OC(C)(C)C)C(=O)O` [Example 42, (2S)-2-(tert-butoxy)-2-(2-((3-cyclopentylpropyl)amino)-7-(8-fluoro-5-methylchroman-6-yl)-5-methylpyrazolo[1,5-a]pyrimidin-6-yl)acetic acid], the pEC50 (read-out: Activity) was above 7.00.

Take `Cc1nc2cc(NCCC(C)C)nn2c(-c2cc(F)c3c(c2C)CCCO3)c1[C@H](OC(C)(C)C)C(=O)O` [Example 43, (2S)-2-(tert-butoxy)-2-(7-(8-fluoro-5-methylchroman-6-yl)-2-(isopentylamino)-5-methylpyrazolo[1,5-a]pyrimidin-6-yl)acetic acid]: the pEC50 (read-out: Activity) was above 7.00. For `Cc1nc2cc(N(CCC(C)C)CCC(C)C)nn2c(-c2cc(F)c3c(c2C)CCCO3)c1[C@H](OC(C)(C)C)C(=O)O` [Example 44, (2S)-2-(tert-butoxy)-2-(2-(diisopentylamino)-7-(8-fluoro-5-methylchroman-6-yl)-5-methylpyrazolo[1,5-a]pyrimidin-6-yl)acetic acid], the pEC50 is 5.80. The pEC50 (read-out: Activity) is below 6.00. On to `Cc1nc2cc(NCCC(C)(C)C)nn2c(-c2cc(F)c3c(c2C)CCCO3)c1[C@H](OC(C)(C)C)C(=O)O` [Example 45, (2S)-2-(tert-butoxy)-2-(2-((3,3-dimethylbutyl)amino)-7-(8-fluoro-5-methylchroman-6-yl)-5-methylpyrazolo[1,5-a]pyrimidin-6-yl)acetic acid], for which the pEC50 (read-out: Activity) was above 7.00. As for `Cc1nc2cc(N(CCC(C)(C)C)CCC(C)(C)C)nn2c(-c2cc(F)c3c(c2C)CCCO3)c1[C@H](OC(C)(C)C)C(=O)O` [Example 46, (2S)-2-(2-(bis(3,3-dimethylbutyl)amino)-7-(8-fluoro-5-methylchroman-6-yl)-5-methylpyrazolo[1,5-a]pyrimidin-6-yl)-2-(tert-butoxy)acetic acid], the pEC50 was 5.59. Also, the pEC50 (read-out: Activity) was below 6.00. As to `Cc1nc2cc(NCCC(C)CC(C)(C)C)nn2c(-c2cc(F)c3c(c2C)CCCO3)c1[C@H](OC(C)(C)C)C(=O)O` (stereo partly drawn) [Example 47, (2S)-2-(tert-butoxy)-2-(7-(8-fluoro-5-methylchroman-6-yl)-5-methyl-2-((3,5,5-trimethylhexyl)amino)pyrazolo[1,5-a]pyrimidin-6-yl)acetic acid], the pEC50 (read-out: Activity) is above 7.00. `Cc1nc2cc(NCCC(F)(F)F)nn2c(-c2cc(F)c3c(c2C)CCCO3)c1[C@H](OC(C)(C)C)C(=O)O` [Example 48, (2S)-2-(tert-butoxy)-2-(7-(8-fluoro-5-methylchroman-6-yl)-5-methyl-2-((3,3,3-trifluoropropyl)amino)pyrazolo[1,5-a]pyrimidin-6-yl)acetic acid]: the pEC50 was 6.47. The pEC50 (read-out: Activity) is 6.00 to 7.00. With `Cc1nc2cc(NC3CCCC3)nn2c(-c2cc(F)c3c(c2C)CCCO3)c1[C@H](OC(C)(C)C)C(=O)O` [Example 49, (2S)-2-(tert-butoxy)-2-(2-(cyclopentylamino)-7-(8-fluoro-5-methylchroman-6-yl)-5-methylpyrazolo[1,5-a]pyrimidin-6-yl)acetic acid], the pEC50 (read-out: Activity) is 6.00 to 7.00. `Cc1nc2cc(N3CCCCC3)nn2c(-c2cc(F)c3c(c2C)CCCO3)c1[C@H](OC(C)(C)C)C(=O)O` [Example 50, (2S)-2-(tert-butoxy)-2-(7-(8-fluoro-5-methylchroman-6-yl)-5-methyl-2-(piperidin-1-yl)pyrazolo[1,5-a]pyrimidin-6-yl)acetic acid]: the pEC50 is 7.22. The pEC50 (read-out: Activity) is above 7.00. In the case of `Cc1nc2cc(N3CCCC3)nn2c(-c2cc(F)c3c(c2C)CCCO3)c1[C@H](OC(C)(C)C)C(=O)O` [Example 51, (2S)-2-(tert-butoxy)-2-(7-(8-fluoro-5-methylchroman-6-yl)-5-methyl-2-(pyrrolidin-1-yl)pyrazolo[1,5-a]pyrimidin-6-yl)acetic acid], the pEC50 (read-out: Activity) is 6.00 to 7.00.

With `Cc1nc2cc(N(C)CCCC3CCCC3)nn2c(-c2cc(F)c3c(c2C)CCCO3)c1[C@H](OC(C)(C)C)C(=O)O` [Example 52, (2S)-2-(tert-butoxy)-2-(2-((3-cyclopentylpropyl)(methyl)amino)-7-(8-fluoro-5-methylchroman-6-yl)-5-methylpyrazolo[1,5-a]pyrimidin-6-yl)acetic acid], the pEC50 (read-out: Activity) is above 7.00.
